Reference: patent US20160031839A1, “ARGININE […] INHIBITORS AND USES THEREOF” (EPIZYME, INC., priority 2013, published 2016)
Read-outs that look alike come from different tables or passages of the source.

What was measured:
PRMT1 = biological target: T1, PRMT1 (Homo sapiens, UniProt Q99873); experiment: PRMT1 Biochemical Assay
T1 construct: made in house; host or cells: High Five insect cells (baculovirus)
From the text: Peptide representative of human histone H4 residues 36-50 was synthesized with an N-terminal linker-affinity tag motif and a C-terminal amide cap by 21st Century Biochemicals. The peptide was purified by high-performance liquid chromatography (HPLC) to greater than 95% purity and confirmed by liquid chromatography mass spectrometry (LC-MS). The sequence was Biot-Ahx-[…]-amide (SEQ ID NO.:1).
Full-length human PRMT1 isoform 1 (NM_001536.5) transcript clone was amplified from an HEK 293 cDNA library, incorporating flanking 5′ sequence encoding a FLAG tag ([…]) (SEQ ID NO.:2) fused directly to Met 1 of PRMT1. The amplified gene was subcloned into pFastBacI (Life Technologies) modified to encode an N-terminal GST tag and a TEV cleavage sequence
GST-tagged PRMT1 was eluted with 50 mM Tris, 2 mM glutathione, pH 7.8, dialysed in buffer A and concentrated to 1 mg/mL. The purity of recovered protein was 73%. Reference: Wasilko, D. J. and S. E. Lee: “TIPS: titerless infected-cells preservation and scale-up” Bioprocess J., 5 (2006), pp. 29-32.
General Procedure for PRMT1 Enzyme Assays on Peptide Substrates.
The assays were all performed in a buffer consisting of 20 mM Bicine (pH=7.6), 1 mM TCEP, 0.005% BSG, and 0.002% Tween 20, prepared on the day of use. Compounds in 100% DMSO (1 ul) were spotted into a polypropylene 384-well V-bottom plates (Greiner) using a Platemate Plus outfitted with a 384-channel head (Thermo Scientific). DMSO (1 ul) was added to Columns 11, 12, 23, 24, rows A-H for the maximum signal control and 1 ul of SAH, a known product and inhibitor of PRMT1, was added to columns 11, 12, 23, 24, rows I-P for the minimum signal control. A cocktail (40 ul) containing the PRMT1 enzyme was added by Multidrop Combi (Thermo-Fisher). The compounds were allowed to incubate with PRMT1 for 30 min at room temperature, then a cocktail (10 ul) containing SAM and peptide was added to initiate the reaction (final volume=51 ul). The final concentrations of the components were as follows: PRMT1 was 0.5 nM, ^3H-SAM was 200 nM, non-radiolabeled SAM was 1.5 uM, peptide was 20 nM, SAH in the minimum signal control wells was 1 mM, and the DMSO concentration was 2%. The assays were stopped by the addition of non-radiolabeled SAM (10 ul) to a final concentration of 300 uM, which dilutes the ^3H-SAM to a level where its incorporation into the peptide substrate is no longer detectable. 50 ul of the reaction in the 384-well polypropylene plate was then transferred to a 384-well Flashplate and the biotinylated peptides were allowed to bind to the streptavidin surface for at least 1 hour before being washed once with 0.1% Tween20 in a Biotek ELx405 plate washer. The plates were then read in a PerkinElmer TopCount plate reader to measure the quantity of ^3H-labeled peptide bound to the Flashplate surface, measured as disintegrations per minute (dpm) or alternatively, referred to as counts per minute (cpm).
(§1) Where dpm=disintegrations per minute, cmpd=signal in assay well, and min and max are the respective minimum and maximum signal controls.
(§2) Where top and bottom are the normally allowed to float, but may be fixed at 100 or 0 respectively in a 3-parameter fit. The Hill Coefficient normally allowed to float but may also be fixed at 1 in a 3-parameter fit. Y is the % inhibition and X is the compound concentration.

PRMT6 = biological target: T2, PRMT6 (Homo sapiens, UniProt Q96LA8); experiment: PRMT6 Biochemical Assay
T2 construct: Expressed full-length human Flag- and His-tagged PRMT6 protein was purified from cell paste; made in house; host or cells: HEK 293F cells (BacMam baculovirus)
T2 sequence (Q96LA8 with tags, fused parts or gaps): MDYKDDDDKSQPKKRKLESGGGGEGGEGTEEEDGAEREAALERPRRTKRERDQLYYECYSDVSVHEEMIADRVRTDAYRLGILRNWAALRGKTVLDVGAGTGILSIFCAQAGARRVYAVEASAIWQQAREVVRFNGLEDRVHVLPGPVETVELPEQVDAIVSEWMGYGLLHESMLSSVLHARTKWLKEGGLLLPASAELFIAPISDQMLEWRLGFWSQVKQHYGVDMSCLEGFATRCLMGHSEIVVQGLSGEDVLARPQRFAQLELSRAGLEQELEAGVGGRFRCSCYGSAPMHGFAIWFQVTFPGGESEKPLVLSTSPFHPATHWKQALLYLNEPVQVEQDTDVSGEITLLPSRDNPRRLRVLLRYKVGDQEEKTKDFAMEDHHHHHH
From the text: Peptide representative of human histone H4 residues 36-50 was synthesized with an N-terminal linker-affinity tag motif and a C-terminal amide cap by 21st Century Biochemicals. The peptide was purified by high-performance liquid chromatography (HPLC) to greater than 95% purity and confirmed by liquid chromatography mass spectrometry (LC-MS). The sequence was Biot-Ahx-[…]-amide and contained a monomethylated lysine at position 44 (SEQ ID NO.:5).
Full-length human PRMT6 (NM_018137.2) transcript clone was amplified from an HEK 293 cDNA library, incorporating a flanking 5′ sequence encoding a FLAG tag ([…]) (SEQ ID NO.:6) fused directly to Ser 2 of PRMT6 and a 3′ sequence encoding a hexa His sequence (HHHHHH) (SEQ ID NO.:17) fused directly to Asp 375. The amplified gene was subcloned into pFastBacMam (Viva Biotech).
Column was washed with 20 mM imidazole in the same buffer and Flag-PRMT6-His was eluted with 150 mM imidazole. Pooled fractions were dialysed against buffer Ni-A and further purified by anti-flag M2 affinity chromatography. Flag-PRMT6-His was eluted with 200 ug/ml FLAG peptide in the same buffer. Pooled fractions were dialysed in 20 mM Tris, 150 mM NaCl, 10% glycerol and 5 mM (3-mercaptoethanol, pH 7.8. The purity of recovered protein was 95%.
General Procedure for PRMT6 Enzyme Assays on Peptide Substrates.
The assays were all performed in a buffer consisting of 20 mM Bicine (pH=7.6), 1 mM TCEP, 0.005% BSG, and 0.002% Tween 20, prepared on the day of use. Compounds in 100% DMSO (1 ul) were spotted into a polypropylene 384-well V-bottom plates (Greiner) using a Platemate Plus outfitted with a 384-channel head (Thermo Scientific). DMSO (1 ul) was added to Columns 11, 12, 23, 24, rows A-H for the maximum signal control and 1 ul of SAH, a known product and inhibitor of PRMT6, was added to columns 11, 12, 23, 24, rows I-P for the minimum signal control. A cocktail (40 ul) containing the PRMT6 enzyme was added by Multidrop Combi (Thermo-Fisher). The compounds were allowed to incubate with PRMT6 for 30 min at room temperature, then a cocktail (10 ul) containing SAM and peptide was added to initiate the reaction (final volume=51 ul). The final concentrations of the components were as follows: PRMT6 was 1 nM, ^3H-SAM was 200 nM, non-radiolabeled SAM was 250 nM, peptide was 75 nM, SAH in the minimum signal control wells was 1 mM, and the DMSO concentration was 2%. The assays were stopped by the addition of non-radiolabeled SAM (10 ul) to a final concentration of 400 uM, which dilutes the ^3H-SAM to a level where its incorporation into the peptide substrate is no longer detectable. 50 ul of the reaction in the 384-well polypropylene plate was then transferred to a 384-well Flashplate and the biotinylated peptides were allowed to bind to the streptavidin surface for at least 1 hour before being washed once with 0.1% Tween20 in a Biotek ELx405 plate washer. The plates were then read in a PerkinElmer TopCount plate reader to measure the quantity of ^3H-labeled peptide bound to the Flashplate surface, measured as disintegrations per minute (dpm) or alternatively, referred to as counts per minute (cpm).
as §1, §2

[1] = Table 2, biochemical evaluation, read-out: PRMT1 IC50 (class)
[2] = Table 2a, numerical, single experiment or average of multiple experiments, read-out: PRMT1 IC50
[3] = Table 2, biochemical evaluation, read-out: PRMT6 IC50 (class)
[4] = Table 2a, numerical, single experiment or average of multiple experiments, read-out: PRMT6 IC50

T1 sequence (Q99873 with tags, fused parts or gaps): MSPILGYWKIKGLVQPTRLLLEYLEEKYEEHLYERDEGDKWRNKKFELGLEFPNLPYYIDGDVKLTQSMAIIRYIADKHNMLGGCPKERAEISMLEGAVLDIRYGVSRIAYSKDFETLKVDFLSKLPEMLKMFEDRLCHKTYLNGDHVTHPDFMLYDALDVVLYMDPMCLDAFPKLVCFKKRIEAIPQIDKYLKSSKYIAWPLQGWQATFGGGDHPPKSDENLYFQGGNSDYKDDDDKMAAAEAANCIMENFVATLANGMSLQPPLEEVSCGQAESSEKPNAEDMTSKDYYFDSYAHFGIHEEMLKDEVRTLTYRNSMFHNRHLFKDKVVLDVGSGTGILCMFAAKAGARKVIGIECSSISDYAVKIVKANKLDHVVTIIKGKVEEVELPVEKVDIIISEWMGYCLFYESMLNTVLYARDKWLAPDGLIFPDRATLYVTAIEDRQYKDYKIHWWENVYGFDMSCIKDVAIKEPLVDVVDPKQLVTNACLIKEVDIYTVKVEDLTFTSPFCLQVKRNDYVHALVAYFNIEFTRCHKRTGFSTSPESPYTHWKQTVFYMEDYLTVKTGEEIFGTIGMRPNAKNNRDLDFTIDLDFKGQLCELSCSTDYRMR

SMILES | IC50 (PRMT1; [1]) | IC50 (PRMT1; [2]) | IC50 (PRMT6; [3]) | IC50 (PRMT6; [4])
CN(CCN)Cc1nsnc1-c1ccc(C#N)cc1 [Compound 7, 4-(4-(((2-aminoethyl)(methyl)amino)methyl)-1,2,5-thiadiazol-3-yl)benzonitrile] | 0.101 to 1 µM | 0.277 µM | 0.101 to 1 µM | 0.112 µM
CN(CCN)Cc1[nH]cnc1-c1ccc(C#N)cc1 [Compound 10, 4-(5-(((2-aminoethyl)(methyl)amino)methyl)-1H-imidazol-4-yl)benzonitrile] | 0.101 to 1 µM | 0.215 µM | 0.101 to 1 µM | 0.168 µM
CN(CCN)Cc1cnnn1-c1ccc(C#N)cc1 [Compound 5, 4-(5-(((2-aminoethyl)(methyl)amino)methyl)-1H-1,2,3-triazol-1-yl)benzonitrile] | > 10 µM | > 10 µM | > 10 µM | > 10 µM
CN(CCN)Cc1ccnn1-c1ccc(C#N)cc1 [Compound 2, 4-(5-(((2-aminoethyl)(methyl)amino)methyl)-1H-pyrazol-1-yl)benzonitrile] | 0.101 to 1 µM | 0.157 µM | < 0.1 µM | 0.0987 µM
CN(CCN)Cc1ccnn1-c1ccc(Oc2ccccc2)cc1 [Compound 9] | < 0.1 µM | 0.0154 µM | < 0.1 µM | 0.00672 µM
CN(CCN)Cc1ocnc1-c1ccc(C#N)cc1 [Compound 4, 4-(5-(((2-aminoethyl)(methyl)amino)methyl)oxazol-4-yl)benzonitrile] | 0.101 to 1 µM | 0.27 µM | 0.101 to 1 µM | 0.168 µM
CN(CCN)Cc1cncn1-c1ccc(C#N)cc1 [Compound 6, 4-(5-(((2-aminoethyl)(methyl)amino)methyl)-1H-imidazol-1-yl)benzonitrile] | 1.01 to 3 µM | 1.68 µM | 1.01 to 3 µM | 1.09 µM
CN(CCN)Cc1n[nH]nc1-c1ccc(C#N)cc1 [Compound 3, 4-(5-(((2-aminoethyl)(methyl)amino)methyl)-2H-1,2,3-triazol-4-yl)benzonitrile] | < 0.1 µM | 0.082 µM | < 0.1 µM | 0.0703 µM
CN(CCN)Cc1oncc1-c1ccc(F)cc1 [Compound 11, N^1-((4-(4-fluorophenyl)isoxazol-5-yl)methyl)-N^1-methylethane-1,2-diamine] | 1.01 to 3 µM | 2.7 µM | 1.01 to 3 µM | 2.95 µM
CN(CCN)Cc1ncoc1-c1ccc(C#N)cc1 [Compound 1, 4-(4-(((2-aminoethyl)(methyl)amino)methyl)oxazol-5-yl)benzonitrile] | 0.101 to 1 µM | 0.314 µM | 0.101 to 1 µM | 0.35 µM
CC(C)Oc1ccc(-n2nccc2CN(C)CCN)cc1 [Compound 8, N^1-((1-(4-isopropoxyphenyl)-1H-pyrazol-5-yl)methyl)-N^1-methylethane-1,2-diamine] | < 0.1 µM | 0.0139 µM | < 0.1 µM | 0.0464 µM
